Earlier results in US20070032536A1, “Compounds, compositions and methods” (priority 2003, published 2007).

test system: A549 cells; conditions: data provided by National Cancer Institute, Developmental Therapeutic Program

Point of comparison: `CC(=O)O[C@H]1C(=O)[C@@]2(C)[C@H]([C@H](OC(=O)c3ccccc3)[C@]3(O)C[C@H](OC(=O)[C@H](O)[C@@H](NC(=O)c4ccccc4)c4ccccc4)C(C)=C1C3(C)C)[C@]1(OC(C)=O)CO[C@@H]1C[C@@H]2O` [paclitaxel], GI50 0.004 µM. Against it:
- O=c1[nH]cc(F)c(=O)[nH]1 [5-fluorouracil] — 250-fold higher, 1 µM
- COc1cccc2c1C(=O)c1c(O)c3c(c(O)c1C2=O)C[C@@](O)(C(=O)CO)C[C@@H]3O[C@H]1C[C@H](N)[C@H](O)[C@H](C)O1 [doxorubicin] — 16-fold higher, 0.063 µM
- NC(=O)NO [hydroxyurea] — far higher, 500 µM
